According to US8299103B2, “Compounds which selectively modulate the CB2 receptor” (Boehringer Ingelheim International GmbH, priority 2009, dated 2012):
Like-named read-outs stand apart in the source and are kept apart here.

What was measured:
human CB1R = biological target: T1, human CB1R (Homo sapiens, UniProt P21554); test: CB1R mediated modulation of cAMP synthesis; format: cell-based
T1 construct: host or cells: CHO cells
Method: C. CB1R Mediated Modulation of cAMP Synthesis:
Compounds of the invention are evaluated for their CB1 agonist or inverse agonistic activity in accordance with the following experimental method.
(§1) CHO cells expressing human CB1R (Euroscreen) are plated at a density of 5000 cells per well in 384 well plates and incubated overnight at 37° C. After removing the media, the cells are treated with test compounds diluted in stimulation buffer containing 1 mM IBMX, 0.25% BSA and 10 uM Forskolin. The assay is incubated for 30 minutes at 37° C. Cells are lysed and the cAMP concentration is measured using DiscoverX-XS cAMP kit, following the manufacturer's protocol. In this setting, agonists will decrease forskolin induced production of cAMP while inverse agonists will further increase forskolin induced production of cAMP. EC50 of agonists are calculated as follows. The maximal amount of cAMP produced by forskolin compared to the level of cAMP inhibited by 1 uM CP55940 is defined as 100%. The EC50 value of each test compound is determined as the concentration at which 50% of the forskolin-stimulated cAMP synthesis is inhibited. Data is analyzed using a four-parameter logistic model. (Model 205 of XLfit 4.0).

human CB2R = biological target: T2, human CB2R (Homo sapiens, UniProt P34972); test: CB2R mediated modulation of cAMP synthesis; format: cell-based
T2 construct: host or cells: CHO cells
Method: B. CB2R Mediated Modulation of cAMP Synthesis:
Compounds of the invention are evaluated for their CB2 agonist or inverse agonistic activity in accordance with the following experimental method.
as §1, with “CB2R” for “CB1R”

[1] = CHO cells expressing human CB1R, inhibition of forskolin-stimulated cAMP synthesis, read-out: CB1 EC50
[2] = CHO cells expressing human CB2R, inhibition of forskolin-stimulated cAMP synthesis, read-out: CB2 EC50

T2 sequence (P34972 whole entry): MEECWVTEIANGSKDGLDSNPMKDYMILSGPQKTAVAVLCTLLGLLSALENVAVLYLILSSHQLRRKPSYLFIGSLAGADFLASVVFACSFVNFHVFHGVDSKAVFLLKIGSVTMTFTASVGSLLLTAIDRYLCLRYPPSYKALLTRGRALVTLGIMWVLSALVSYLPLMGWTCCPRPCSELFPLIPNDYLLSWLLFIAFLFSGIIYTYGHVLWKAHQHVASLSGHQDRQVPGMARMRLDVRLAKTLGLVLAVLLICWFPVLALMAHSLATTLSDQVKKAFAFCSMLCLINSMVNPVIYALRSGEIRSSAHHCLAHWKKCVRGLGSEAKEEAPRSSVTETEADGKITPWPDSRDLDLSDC
T1 sequence (P21554 whole entry): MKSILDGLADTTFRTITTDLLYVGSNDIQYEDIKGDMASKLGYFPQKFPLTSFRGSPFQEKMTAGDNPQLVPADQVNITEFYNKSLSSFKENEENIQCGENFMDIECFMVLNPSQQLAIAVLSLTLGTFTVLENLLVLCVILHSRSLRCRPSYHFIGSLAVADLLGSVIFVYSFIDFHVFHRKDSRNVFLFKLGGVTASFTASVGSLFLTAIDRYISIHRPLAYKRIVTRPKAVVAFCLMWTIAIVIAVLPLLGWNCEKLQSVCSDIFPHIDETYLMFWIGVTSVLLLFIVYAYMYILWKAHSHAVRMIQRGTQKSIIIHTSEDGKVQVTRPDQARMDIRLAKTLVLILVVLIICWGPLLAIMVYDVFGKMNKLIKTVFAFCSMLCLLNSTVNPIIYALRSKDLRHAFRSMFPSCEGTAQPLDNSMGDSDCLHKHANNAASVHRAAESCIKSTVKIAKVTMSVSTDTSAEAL

SMILES | EC50 (human CB1R) [nM] | EC50 (human CB2R) [nM] | EC50 (human CB1R; [1]) [nM] | EC50 (human CB2R; [2]) [nM] | further results
CN(C(=O)CCCC(F)(F)F)C(C)(C)C(=O)Nc1cc(C(C)(C)CO)no1 | 32100 | 27 | – | – | –
COCCOCC(C)(C)c1cc(NC(=O)C(C)(C)N(C)C2CCOCC2)on1 | – | – | > 50000 | 246 | –
COCCOC(C)(C)c1cc(NC(=O)C(C)(C)N(C)C2CCOCC2)on1 | > 50000 | 93 | – | – | –
COCC(C)(C)c1cc(NC(=O)C(C)(C)NC2CCOCC2)on1 | – | – | > 20000 | 313 | –
Cc1ncc(C(C)(C)c2cc(NC(=O)C(C)(C)N(C)C3CCOCC3)on2)o1 | 20800 | 15 | – | – | –
CC(C)(CO)c1cc(NC(=O)C(C)(C)N2CC[C@@H](O)C2)on1 | – | – | > 50000 | 494 | –
CN(CC1CCOCC1)C(C)(C)C(=O)Nc1nnc(C(C)(C)CO)s1 | – | – | > 50000 | 11 | –
CC(C)(NCC1CCOCC1)C(=O)Nc1cc(C(C)(C)CO)no1 | – | – | > 50000 | 374 | –
CN(C1CC1)C(C)(C)C(=O)Nc1cc(C(C)(C)CO)no1 | – | 446 | – | – | –
CC(C)(NCCC1CCOCC1)C(=O)Nc1cc(C(C)(C)CO)no1 | – | – | > 50000 | 113 | –
CN(CC1CCOC1)C(C)(C)C(=O)Nc1cc(C(C)(C)CO)no1 (centres unmarked) | > 50000 | 29 | – | – | –
CC(C)(NCCCC(F)(F)F)C(=O)Nc1cc(C2(CO)CCC2)no1 | > 50000 | 54 | – | – | –
CC(C)(NCCCC(F)(F)F)C(=O)Nc1cc(C(C)(C)CO)no1 | > 50000 | 31 | – | – | –
CN([C@H]1CCN(S(C)(=O)=O)C1)C(C)(C)C(=O)Nc1cc(C(C)(C)CO)no1 | > 50000 | 28 | – | – | –
CN(CC1CCOCC1)C(C)(C)C(=O)Nc1cc(C2(O)CC2)no1 | > 50000 | 13 | – | – | –
CN(C[C@@H]1COCCO1)C(C)(C)C(=O)Nc1cc(C(C)(C)CO)no1 | > 50000 | 40 | – | – | –
COCC(C)(C)c1cc(NC(=O)C(C)(C)NC2CCOCC2)no1 | – | – | > 20000 | 337 | –
CN(C1CCOCC1)C(C)(C)C(=O)Nc1cc(C2(CO)CCC2)no1 | > 50000 | 66 | – | – | –
CC(C)(NC1CCC(NS(C)(=O)=O)CC1)C(=O)Nc1nnn(C(C)(C)C)n1 (centres unmarked) | – | – | – | – | EC50 (human CB1R; read-out: CB1 EC50, CHO cells expressing human CB1R, inhibition of forskolin-stimulated cAMP synthesis): > 50000 nM; EC50 (human CB2R; read-out: CB2 EC50, CHO cells expressing human CB2R, inhibition of forskolin-stimulated cAMP synthesis): 33 nM
CC[C@H](C)N(C)C(C)(C)C(=O)Nc1cc(C(C)(C)CO)no1 | – | – | > 50000 | 220 | –
C[C@H](O)C(C)(C)c1cc(NC(=O)C(C)(C)N(C)C2CCOCC2)on1 | 44700 | 28 | – | – | –

SMILES | EC50 (human CB1R) [nM] | EC50 (human CB2R) [nM] | EC50 (human CB1R; [1]) [nM] | EC50 (human CB2R; [2]) [nM] | further results
CC(C)(NC1CCN(S(C)(=O)=O)CC1)C(=O)Nc1cc(C(C)(C)CO)no1 | – | – | > 50000 | 302 | –
CN([C@@H]1CCN(S(C)(=O)=O)C1)C(C)(C)C(=O)Nc1cc(C(C)(C)CO)no1 | > 20000 | 1.7 | – | – | –
CC(C)(CO)c1cc(NC(=O)C(C)(C)N2CCCCC2)on1 | 22000 | 28 | – | – | –
COCC(C)(C)c1cc(NC(=O)C(C)(C)NCC2CCOCC2)no1 | – | – | > 20000 | 132 | –
CN(C1CCOCC1)C(C)(C)C(=O)Nc1cc(C(C)(C)C2CCOCC2)no1 | > 50000 | 44 | – | – | –
CN(C1CCOCC1)C(C)(C)C(=O)Nc1cc(C(C)(C)CO)no1 | > 50000 | 56 | – | – | –
CN(C(=O)C[C@H]1CCOC1)C(C)(C)C(=O)Nc1cc(C(C)(C)CO)no1 | > 50000 | 25 | – | – | –
CN(C(=O)CC1CCOCC1)C(C)(C)C(=O)Nc1cc(C(C)(C)CO)no1 | > 50000 | 27 | – | – | –
CN(C(=O)CCC(F)(F)F)C(C)(C)C(=O)Nc1cc(C(C)(C)CO)no1 | > 50000 | 69 | – | – | –
CC(C)N(C)C(C)(C)C(=O)Nc1cc(C(C)(C)CO)no1 | – | – | > 50000 | 244 | –
CN(CC1CC1)C(C)(C)C(=O)Nc1cc(C(C)(C)CO)no1 | 36000 | 12 | – | – | –
CC(C)(N[C@H]1CC[C@@H](O)CC1)C(=O)Nc1cc(C(C)(C)CO)no1 | – | – | > 50000 | 300 | –
CC(C)(CO)c1cc(NC(=O)C(C)(C)N2CCC(NS(C)(=O)=O)CC2)on1 | > 50000 | 7.1 | – | – | –
CN(C[C@H]1CCCN(S(C)(=O)=O)C1)C(C)(C)C(=O)Nc1cc(C(C)(C)CO)no1 | – | – | > 50000 | 126 | –
CN(C1CCOCC1)C(C)(C)C(=O)Nc1cc(C2(CO)CCCC2)no1 | 21500 | 21 | – | – | –
CC(C)(NCC1CCOCC1)C(=O)Nc1cc(C(C)(C)COC2CCCCO2)no1 (centres unmarked) | – | – | > 50000 | 201 | –
CC(C)(N[C@H]1CC[C@@H](NS(C)(=O)=O)CC1)C(=O)Nc1cc(C(C)(C)CO)no1 | > 50000 | 42 | – | – | –
CC(C)(NCCCC(F)(F)F)C(=O)Nc1cc(C(C)(C)OCCO)no1 | – | – | > 50000 | 109 | –
Cc1ncc(C(C)(C)c2cc(NC(=O)C(C)(C)NC3CCN(S(C)(=O)=O)CC3)on2)s1 | – | – | > 50000 | 195 | –
CN(C[C@H]1COCCO1)C(C)(C)C(=O)Nc1cc(C(C)(C)CO)no1 | > 50000 | 68 | – | – | –
CN(C1CCOCC1)C(C)(C)C(=O)Nc1cc(C(C)(C)COCCO)no1 | 37600 | 15 | – | – | –
